Patent US8252798B2, “Purine compounds” (Eli Lilly and Company, priority 2008, dated 2012)
Counter-ions that a name gives are not always drawn.

How the values were obtained:
male Lewis rats = test: Monoiodoacetate (MIA) model, incapacitance testing of knee pain; assay type: in vivo; details: rat MIA model
Protocol: For all studies male Lewis rats of approximately 8 weeks of age at the time of MIA injection are used to measure pain in the MIA model. The rats are housed in groups of 2 or 3 per cage and maintained in a constant temperature and on a 12 hour light/12 hour dark cycle. Animals have free access to food and water at all times except during data collection.
In the standard MIA model the right knees of each rat are injected with 0.3 mg MIA in 50 ul of saline and the left knees with 50 ul of saline. Pain is measured at varying times after MIA injection (not normally before 10 day post MIA injection) using incapacitance testing. This measures the difference in hind paw weight bearing between the MIA and saline injected knees, and each measurement is the average of 3 separate measurements each measured over 1 second.
For studies with CB2 agonists rats are randomized into dose groups (n=5 or 6) and then dosed once with the compound under investigation. Dosing is staggered by 15 minutes for each rat and at a predetermined time post-dose (usually 2 hours), pain measured using incapacitance testing. Studies are routinely run with 4 groups, vehicle (1% carboxy methyl cellulose in water plus 0.25% polysorbate 80) and 3 compound groups which can be either single compounds at a single dose or the same compound at 3 doses. […]

human CB2 receptor = molecular target: T1, human CB2 receptor (Homo sapiens, UniProt P34972); test: Displacement of 3H-CP55940 from human CB2 receptors; assay type: binding; details: displacement of 3H-CP55940, human CB2 membrane homogenates
T1 construct: expressed in transfected cells
T1 sequence (P34972 whole entry): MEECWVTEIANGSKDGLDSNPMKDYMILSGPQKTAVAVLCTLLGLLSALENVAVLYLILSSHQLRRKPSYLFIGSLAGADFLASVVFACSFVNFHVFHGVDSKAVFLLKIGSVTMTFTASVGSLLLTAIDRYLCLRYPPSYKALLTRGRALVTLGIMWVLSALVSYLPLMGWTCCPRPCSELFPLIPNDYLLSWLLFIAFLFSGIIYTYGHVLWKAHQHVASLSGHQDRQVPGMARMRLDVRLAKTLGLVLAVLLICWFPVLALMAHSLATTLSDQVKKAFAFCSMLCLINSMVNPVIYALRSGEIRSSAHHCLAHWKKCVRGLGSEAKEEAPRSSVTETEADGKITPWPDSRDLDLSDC
Protocol: (§1) The methods of Felder et al. (Mol. Pharmaocol. 48:443-450, 1995) were utilized with minor modifications. Specifically, membrane homogenates from cells stably or transiently expressing the human or rat CB2 receptor were washed by centrifugation and diluted into a 50 mM Tris HCl (pH 7.4), 5 mM MgCl2, 2.5 mM EDTA, and 0.1% BSA buffer. Specific binding of 3H-CP55940 was defined with 1 μM CP55940. The ability of compounds to displace specific 3H-CP55940 binding was tested over a range of concentrations in the Tris, MgCl2, EDTA, BSA buffer in the presence of 1% dimethyl sulfoxide by incubating at room temperature for 90 minutes in a volume of 300 μl. Unifilter 96-well microplates pretreated with 0.5% polyvinylpyrrolidone, 0.1% polysorbate 20 in water were washed three times with cold Tris buffer. The reaction mixture was then transferred to the filter plate immediately before terminating the incubation by rapid filtration and three 200 μl washes with cold Tris buffer. After the filter plates dried, microscint 20 was added to each well, the plate sealed and counted for determination of disintegrations per minute. The displacement curves were graphed and the resulting Ki values determined utilizing Graphpad Prism.

rat CB2 receptor = molecular target: T2, rat CB2 receptor (Rattus norvegicus, UniProt Q9QZN9); test: Displacement of 3H-CP55940 from rat CB2 receptors; assay type: binding; details: displacement of 3H-CP55940, rat CB2 membrane homogenates
T2 construct: expressed in transfected cells
T2 sequence (Q9QZN9 1-360): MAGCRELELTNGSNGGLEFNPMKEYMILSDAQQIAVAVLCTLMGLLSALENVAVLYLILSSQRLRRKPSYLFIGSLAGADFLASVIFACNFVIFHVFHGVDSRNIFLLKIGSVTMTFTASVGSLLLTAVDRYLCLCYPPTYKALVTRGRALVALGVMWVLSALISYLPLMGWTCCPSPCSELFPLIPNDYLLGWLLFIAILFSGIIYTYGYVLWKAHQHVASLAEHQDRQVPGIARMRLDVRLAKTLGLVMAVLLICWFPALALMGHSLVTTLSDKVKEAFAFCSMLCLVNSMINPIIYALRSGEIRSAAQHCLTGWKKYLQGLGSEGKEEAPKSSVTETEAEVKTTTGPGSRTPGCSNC
Protocol: as §1

hCB2-Sf9 membranes = molecular target: T3, hCB2-Sf9 membranes (Homo sapiens, UniProt P34972); test: CB2 in vitro functional assay, SPA based GTP-γ-35S binding, agonist mode (antibody capture); assay type: biochemical; details: normalized to full agonist methanandamide, read-out: relative EC50 value for CB2
T3 construct: expressed in transfected cells; host or cells: Sf9
T3 sequence (P34972 whole entry): as the sequence (P34972 whole entry) above
Protocol: (§2) Exemplified compounds are tested in agonist mode using a SPA based GTP-γ-^35S binding assay. All assay components are prepared in assay buffer made up of 20 mM HEPES, 100 mM NaCl, 5 mM MgCl2, (pH 7.4 at room temperature). Semi-log compound dilutions are done in assay buffer containing BSA (final 0.125%). GTP-γ^35-S binding is measured in a 96 well format using a whole membrane capture technique for the CB1 assay and modifications of an antibody capture technique previously described (DeLapp et al. J Pharmacol Exp Ther 289:946-955, 1999) for the CB2 assay. All incubations are done at room temperature.
hCB2-Sf9 membranes and GDP (1 uM final) are added to assay buffer and homogenized. Diluted compounds and membranes are added to the assay plate and pre-incubated for 15 minutes. This is followed by addition of GTP-γ-^35S (500 nM final) and another 35 minute incubation. Next a mixture containing Nonidet® P40 detergent (0.2% final), anti-Gi antibody (final dilution of 1:362), and 1.25 mg anti-rabbit antibody scintillation proximity assay beads is added. The plates are then sealed, vortexed, and incubated for an additional 2 hours before centrifuging and counting as for CB1.
To analyze data, first subtract background from all wells. Determine percent agonist efficacy by normalizing agonist/inverse agonist dose response data to a full agonist (methanandamide) response. […]

hCB1-CHO membranes = molecular target: T4, hCB1-CHO membranes (Homo sapiens, UniProt P21554); test: CB1 in vitro functional assay, SPA based GTP-γ-35S binding, agonist mode (whole membrane capture); assay type: biochemical; details: normalized to full agonist methanandamide, read-out: relative EC50 value for CB1
T4 construct: expressed in transfected cells; host or cells: CHO
T4 sequence (P21554 whole entry): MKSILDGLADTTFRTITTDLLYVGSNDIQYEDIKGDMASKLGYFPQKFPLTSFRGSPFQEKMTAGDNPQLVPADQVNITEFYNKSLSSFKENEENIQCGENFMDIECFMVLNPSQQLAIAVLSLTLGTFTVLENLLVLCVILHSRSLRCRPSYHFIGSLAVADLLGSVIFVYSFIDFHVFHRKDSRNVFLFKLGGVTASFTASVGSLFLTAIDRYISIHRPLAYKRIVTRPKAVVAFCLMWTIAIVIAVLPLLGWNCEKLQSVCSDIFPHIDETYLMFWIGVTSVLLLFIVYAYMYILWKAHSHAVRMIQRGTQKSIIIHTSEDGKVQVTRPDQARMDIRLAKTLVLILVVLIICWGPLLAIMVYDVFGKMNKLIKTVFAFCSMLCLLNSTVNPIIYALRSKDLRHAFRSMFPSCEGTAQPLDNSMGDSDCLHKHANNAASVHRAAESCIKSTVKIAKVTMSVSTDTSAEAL
Protocol: as §2
hCB1-CHO membranes, GDP (1 uM final), and saponin (10 ug/mL final) are added to assay buffer and homogenized. Diluted compounds, GTP-γ-^35S (500 nM final) and membranes are added to the assay plate and incubated for 30 minutes. Then 1 mg/well Wheatgerm Agglutinin SPA bead is added, and the plates are sealed, vortexed, and incubated for an additional hour. Plates are then centrifuged at 700×g for 10 minutes and counted for 1 minute per well using a scintillation counter.
To analyze data, first subtract background from all wells. Determine percent agonist efficacy by normalizing agonist/inverse agonist dose response data to a full agonist (methanandamide) response. Analyze the data using a 4-parameter logistic reduced fit with Activity Base and XLFit3.

`Cc1nc(N2CCN(C)CC2)c2nc(-c3ccccc3Cl)n([C@@H]3CCOC3)c2n1.Cl` [Example 88, 8-(2-Chloro-phenyl)-2-methyl-6-(4-methyl-piperazin-1-yl)-9-(R)-tetrahydro-furan-3-yl-9H-purine hydrochloride salt] was tested, and the “pain versus vehicle (difference in hind paw weight bearing)” value (male Lewis rats; oral dose 0.3 mg/kg) was “significantly reduce pain versus vehicle” and the “pain versus vehicle (difference in hind paw weight bearing)” value (male Lewis rats; oral dose 1 mg/kg) was “significantly reduce pain versus vehicle”.
`Cc1nc(N2CCN(C)CC2)c2nc(-c3cccnc3C3CC3)n([C@@H]3CCOC3)c2n1` [Example 76, 8-(2-Cyclopropyl-pyridin-3-yl)-2-methyl-6-(4-methyl-piperazin-1-yl)-9-(R)-tetrahydro-furan-3-yl-9H-purine hydrochloride salt] was tested, and the Ki (human CB2 receptor) was 33.9 nM and the Ki (rat CB2 receptor) was 31.3 nM.
`Cc1nc(N2CCN3C(=O)CCC3C2)c2nc(-c3ccccc3Cl)n(CC3CCOCC3)c2n1` (single isomer, unassigned) [Example 61, 2-[8-(2-Chloro-phenyl)-2-methyl-9-(tetrahydro-pyran-4-ylmethyl)-9H-purin-6-yl]-hexahydro-pyrrolo[1,2-a]pyrazin-6-one hydrochloride salt] gave an EC50 (hCB2-Sf9 membranes) of 18 nM and an EC50 (hCB1-CHO membranes) of 1950 nM.
